From patent US8071612B2, “6-alkenyl and 6-phenylalkyl substituted 2-quinolinones and 2-quinoxalinones as poly(ADP-ribose) polymerase inhibitors” (Janssen Pharmaceutica, NV, priority 2004, dated 2011)

Assays:
[1] = biological target: T1, PARP-1 enzyme (Homo sapiens, UniProt P09874); experiment: In vitro filtration assay for PARP-1 inhibitory activity; type: biochemical; conditions: nicked DNA activated PARP-1, [32P]-NAD, histones; read-out: In vitro filtration assay pIC50 (converted)
T1 construct: made in house
Method: Compounds of the present invention were tested in an in vitro filtration assay assessing PARP-1 activity (triggered in the presence of nicked DNA) by means of its histone poly (ADP-ribosyl)ation activity using [^32P]-NAD as ADP-ribosyl donor. The radioactive ribosylated histones were precipitated by trichloroacetic acid (TCA) in 96-well filterplates and the incorporated [^32P] measured using a scintillation counter
A mixture of histones (stock solution: 5 mg/ml in H2O), NAD (stock solution: 100 mM in H2O), and [^32P]-NAD^+ in incubation buffer (50 mM Tris/HCl, pH 8; 0.2 mM DTT; 4 mM MgCl2) was made. A mixture of the PARP-1 enzyme (5-10 μg/ml) and nicked DNA was also made. The nicked DNA was prepared as described in the in vitro SPA for PARP-1 inhibitory activity. Seventy-five μl of the PARP-1 enzyme/DNA mixture together with 1 μl of compound in DMSO and 25 μl of histones-NAD^+/[^32P]-NAD^+ mixture was added per well of a 96-well filterplate (0.45 μm, supplier Millipore). The final concentrations in the incubation mixture were 2 μg/ml for the histones, 0.1 mM for the NAD^+, […] (0.5 μC) for the [^32P]-NAD^+ and 2 μg/ml for the nicked DNA. Plates were incubated for 15 min. at room temperature and the reaction was terminated by the addition of 10 μl ice cold 100% TCA followed by the addition of 10 μl ice-cold BSA solution (1% in H2O). The protein fraction was allowed to precipitate for 10 min. at 4° C. and plates were vacuum filtered. The plates were subsequently washed with, for each well, 1 ml of 10% ice cold TCA, 1 ml of 5% ice cold TCA and 1 ml of 5% TCA at room temperature. Finally 100 μl of scintillation solution (Microscint 40, Packard) was added to each well and the plates were transferred to a TopCountNXT™ (supplier: Packard) for scintillation counting and values were expressed as counts per minute (cpm). For each experiment, controls (containing PARP-1 enzyme and DMSO without compound), a blank incubation (containing DMSO but no PARP-1 enzyme or compound) and samples (containing PARP-1 enzyme and compound dissolved in DMSO) were run in parallel. All compounds tested were dissolved and eventually further diluted in DMSO. In first instance, compounds were tested at a concentration of 10^−5M. […] In each test, the blank value was subtracted from both the control and the sample values. The control sample represented maximal PARP-1 enzyme activity. For each sample, the amount of cpm was expressed as a percentage of the mean cpm value of the controls. When appropriate, IC50-values (concentration of the drug, needed to reduce the PARP-1 enzyme activity to 50% of the control) were computed using linear interpolation between the experimental points just above and below the 50% level. Herein the effects of test compounds are expressed as pIC50 (the negative log value of the IC50-value). As a reference compound, 4-amino-1,8-naphthalimide was included to validate the filtration assay.

[2] = biological target: T1, PARP-1 enzyme; experiment: In vitro Scintillation Proximity Assay (SPA) for PARP-1 inhibitory activity; type: biochemical; conditions: nicked DNA activated PARP-1, [3H]-NAD+, biotinylated histones; read-out: In vitro SPA pIC50 (converted)
Method: Compounds of the present invention were tested in an in vitro assay based on SPA technology (proprietary to Amersham Pharmacia Biotech).
In principle, the assay relies upon the well established SPA technology for the detection of poly(ADP-ribosyl)ation of biotinylated target proteins, i.e histones. This ribosylation is induced using nicked DNA activated PARP-1 enzyme and [^3H]-nicotinamide adenine dinucleotide ([^3H]-NAD^+) as ADP-ribosyl donor.
As inducer of PARP-1 enzyme activity, nicked DNA was prepared. For this, 25 mg of DNA (supplier: Sigma) was dissolved in 25 ml DNAse buffer (10 mM Tris-HCl, pH 7.4; 0.5 mg/ml Bovine Serum Albumine (BSA); 5 mM MgCl2.6H2O and 1 mM KCl) to which 50 μl DNAse solution (1 mg/ml in 0.15 M NaCl) was added. After an incubation of 90 min. at 37° C., the reaction was terminated by adding 1.45 g NaCl, followed by a further incubation at 58° C. for 15 min. The reaction mixture was cooled on ice and dialysed at 4° C. for respectively 1.5 and 2 hours against 1.5 l of 0.2 M KCl, and twice against 1.5 l of 0.01 M KCl for 1.5 and 2 h respectively. The mixture was aliquoted and stored at −20° C. Histones (1 mg/ml, type II-A, supplier: Sigma) were biotinylated using the biotinylation kit of Amersham and stored aliquoted at −20° C. A stock solution of 100 mg/ml SPA poly(vinyl toluene) (PVT) beads (supplier: Amersham) was made in PBS. A stock solution of [^3]H-NAD^+ was made by adding 120 μl of [^3H]-NAD^+ (0.1 mCi/ml, supplier: NEN) to 6 ml incubation buffer (50 mM Tris/HCl, pH 8; 0.2 mM DTT; 4 mM MgCl2). A solution of 4 mM NAD^+ (supplier: Roche) was made in incubation buffer (from a 100 mM stock solution in water stored at −20° C.). The PARP-1 enzyme was produced using art known techniques, i.e. cloning and expression of the protein starting from human liver cDNA. Information concerning the used protein sequence of the PARP-1 enzyme including literature references can be found in the Swiss-Prot database under primary accession number P09874. Biotinylated histones and PVT-SPA beads were mixed and pre-incubated for 30 min. at room temperature. PARP-1 enzyme (concentration was lot dependent) was mixed with the nicked DNA and the mixture was pre-incubated for 30 min. at 4° C. Equal parts of this histones/PVT-SPA beads solution and PARP-1 enzyme/DNA solution were mixed and 75 μl of this mixture together with 1 μl of compound in DMSO and 25 μl of [^3H]-NAD^+ was added per well into a 96-well microtiterplate. The final concentrations in the incubation mixture were 2 μg/ml for the biotinylated histones, 2 mg/ml for the PVT-SPA beads, 2 μg/ml for the nicked DNA and between 5-10 μg/ml for the PARP-1 enzyme. After incubation of the mixture for 15 min. at room temperature, the reaction was terminated by adding 100 μl of 4 mM NAD^+ in incubation buffer (final concentration 2 mM) and plates were mixed.
The beads were allowed to sediment for at least 15 min. and plates transferred to a TopCountNXT™ (Packard) for scintillation counting, values were expressed as counts per minute (cpm). For each experiment, controls (containing PARP-1 enzyme and DMSO without compound), a blank incubation (containing DMSO but no PARP-1 enzyme or compound) and samples (containing PARP-1 enzyme and compound dissolved in DMSO) were run in parallel. All compounds tested were dissolved and eventually further diluted in DMSO. In first instance, compounds were tested at a concentration of 10^−5 M or 10^−6M. […] In each test, the blank value was subtracted from both the control and the sample values. The control sample represented maximal PARP-1 enzyme activity. For each sample, the amount of cpm was expressed as a percentage of the mean cpm value of the controls. When appropriate, IC50-values (concentration of the drug, needed to reduce the PARP-1 enzyme activity to 50% of the control) were computed using linear interpolation between the experimental points just above and below the 50% level. […]

T1 sequence (P09874 whole entry): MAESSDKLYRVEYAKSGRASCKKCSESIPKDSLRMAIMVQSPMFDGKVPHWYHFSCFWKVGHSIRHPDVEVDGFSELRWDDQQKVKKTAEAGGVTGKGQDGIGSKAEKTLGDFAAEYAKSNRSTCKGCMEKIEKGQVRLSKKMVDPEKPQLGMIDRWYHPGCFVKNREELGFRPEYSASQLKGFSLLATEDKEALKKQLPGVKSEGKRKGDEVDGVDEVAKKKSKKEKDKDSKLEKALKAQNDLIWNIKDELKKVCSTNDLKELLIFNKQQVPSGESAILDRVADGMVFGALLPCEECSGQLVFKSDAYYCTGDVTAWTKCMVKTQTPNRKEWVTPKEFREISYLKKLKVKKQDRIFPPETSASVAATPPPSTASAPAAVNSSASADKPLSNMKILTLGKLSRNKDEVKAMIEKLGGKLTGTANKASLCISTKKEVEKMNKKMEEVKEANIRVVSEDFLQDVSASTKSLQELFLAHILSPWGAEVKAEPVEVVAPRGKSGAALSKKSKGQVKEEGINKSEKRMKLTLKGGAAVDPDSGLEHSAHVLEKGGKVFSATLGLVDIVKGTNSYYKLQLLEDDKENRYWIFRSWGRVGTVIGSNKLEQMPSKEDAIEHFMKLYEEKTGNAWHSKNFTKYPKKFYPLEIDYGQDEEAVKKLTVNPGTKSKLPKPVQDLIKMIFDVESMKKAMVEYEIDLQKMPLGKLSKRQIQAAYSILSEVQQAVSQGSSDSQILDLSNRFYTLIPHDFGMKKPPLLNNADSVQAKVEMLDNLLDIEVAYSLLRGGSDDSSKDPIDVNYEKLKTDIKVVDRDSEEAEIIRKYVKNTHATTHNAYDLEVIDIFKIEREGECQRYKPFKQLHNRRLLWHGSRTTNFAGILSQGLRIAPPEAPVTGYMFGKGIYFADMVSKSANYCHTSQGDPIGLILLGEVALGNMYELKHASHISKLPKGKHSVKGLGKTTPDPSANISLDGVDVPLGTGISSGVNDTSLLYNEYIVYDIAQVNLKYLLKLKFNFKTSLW

Structure (SMILES)	IC50 [1] [nM]	IC50 [2] [nM]
CCc1cc2cc(C(c3ccccc3)N3CCC(=O)CC3)ccc2[nH]c1=O (stereo not shown) [Compound 81]	3970	305
Cc1cc2cc(C(C)(C#N)c3ccccc3)ccc2[nH]c1=O (stereo not shown) [Compound 85]	1190	189
CCc1cc2cc(C(c3ccc(Cl)cc3)N3CCC(NCCOC)CC3)ccc2[nH]c1=O (stereo not shown) [Compound 86]	2240	292
CCc1cc2cc(C(c3cccc(C(F)(F)F)c3)N3CCC(NCCOC)CC3)ccc2[nH]c1=O (stereo not shown) [Compound 87]	4950	589
Cc1cc2cc(C(c3ccccc3)C3CCCN(C)C3)ccc2[nH]c1=O (stereo not shown) [Compound 88]	4070	264
Cc1cc2cc(C(CCN3CCCCC3)c3ccccc3)ccc2[nH]c1=O (stereo not shown) [Compound 89]	2680	451
CCc1cc2cc(C(CCN(C)C)c3cccc(C(F)(F)F)c3)ccc2[nH]c1=O (stereo not shown) [Compound 91]	828	187
CCc1cc2cc(C(CCN(C)C)c3ccccc3)ccc2[nH]c1=O (stereo not shown) [Compound 92]	1180	105
Cc1cc2cc(C(c3ccccc3)N3CCCCC3)ccc2[nH]c1=O (stereo not shown) [Compound 93]	2150	508
Cc1cc2cc(C(c3cccc(Cl)c3)n3ccnc3)ccc2[nH]c1=O (stereo not shown) [Compound 94]	3560	665
Cc1cc2cc(C(c3ccc(Cl)cc3)n3ccnc3)ccc2[nH]c1=O (stereo not shown) [Compound 95]	6350	818
CCc1cc2cc(C(NC=O)c3ccccc3)ccc2[nH]c1=O (stereo not shown) [Compound 96]	352	69.8
CCc1cc2cc(/C(=C\CN3CCCCC3)c3ccc4c(c3)OCCO4)ccc2[nH]c1=O [Compound 130]	–	188
CCc1cc2cc(/C(=C\CN(C)C)c3ccc4c(c3)OCCO4)ccc2[nH]c1=O [Compound 136]	–	137
CCc1cc2cc(/C(=C\CN(C)C)c3ccc(Cl)cc3)ccc2[nH]c1=O [Compound 137]	–	428
CCc1cc2cc(/C(=C/CN(C)C)c3ccc4c(c3)OCCO4)ccc2[nH]c1=O [Compound 138]	–	63
CCc1cc2cc(C(=C3CCN(CCCn4c(=O)[nH]c5ccccc54)CC3)c3ccc4c(c3)OCCO4)ccc2[nH]c1=O [Compound 141]	–	121
CCc1cc2cc(C(=C3CCN(C/C=C/c4ccccc4)CC3)c3ccc4c(c3)OCCO4)ccc2[nH]c1=O [Compound 142]	–	322
CCc1cc2cc(C(=C3CCN(CC(O)COc4ccc(F)cc4)CC3)c3ccc4c(c3)OCCO4)ccc2[nH]c1=O (stereo not shown) [Compound 143]	–	157
